Toxic doses and inconclusive results are not listed. Rule as the data show it: active = T/C of 150% or more; inactive = T/C below 125%.
Tested on: L1210 leukemia ip in BDF1 mice, survival T/C
Assay: NCI In Vivo Anticancer Drug Screen. Data for tumor model L1210 Leukemia (intraperitoneal) in B6D2F1 (BDF1) mice
Settings: endpoint: mean survival time, higher = longer survival
Summary of the method: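 Ratio derived from survival: compound-dosed mice over vehicle-dosed mice, all bearing a transplantable tumor.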

[1] = dose: 100.0 mg/kg/injection, schedule: Q04DX003 (ip), vehicle: saline with Tween-80
[2] = dose: 100.0 mg/kg/injection, schedule: Q04DX003 (ip), vehicle: saline
[3] = dose: 200.0 mg/kg/injection, schedule: Q04DX003 (ip), vehicle: saline
[4] = dose: 100.0 mg/kg/injection, schedule: Q01DX001 (ip), vehicle: saline
[5] = dose: 200.0 mg/kg/injection, schedule: Q01DX001 (ip), vehicle: saline
[6] = dose: 400.0 mg/kg/injection, schedule: Q01DX001 (ip), vehicle: saline
[7] = dose: 100.0 mg/kg/injection, schedule: Q01DX001 (ip), vehicle: Klucel (hydroxypropylcellulose) (HPC)
[8] = dose: 200.0 mg/kg/injection, schedule: Q01DX001 (ip), vehicle: Klucel (hydroxypropylcellulose) (HPC)
[9] = dose: 400.0 mg/kg/injection, schedule: Q01DX001 (ip), vehicle: Klucel (hydroxypropylcellulose) (HPC)
[10] = dose: 150.0 mg/kg/injection, schedule: Q01DX001 (ip), vehicle: carboxymethylcellulose (CMC)
[11] = dose: 400.0 mg/kg/injection, schedule: Q04DX003 (ip), vehicle: saline

Measured: T/C

COc1ccccc1C1CCCCCCC1OS(=O)(=O)c1ccc(C)cc1 (centres undefined)
inactive: dose: 18.75 mg/kg/injection, schedule: Q01DX009 (ip), vehicle: saline 97 % of control | dose: 37.5 mg/kg/injection, schedule: Q01DX009 (ip), vehicle: saline 95 % of control | dose: 75.0 mg/kg/injection, schedule: Q01DX001 (ip), vehicle: acetone 89 % of control | dose: 75.0 mg/kg/injection, schedule: Q01DX001 (ip), vehicle: saline 90 % of control | dose: 75.0 mg/kg/injection, schedule: Q01DX009 (ip), vehicle: saline 90 % of control | dose: 75.0 mg/kg/injection, schedule: Q04DX003 (ip), vehicle: saline 88 % of control | dose: 112.0 mg/kg/injection, schedule: Q01DX009 (ip), vehicle: saline 103 % of control | dose: 150.0 mg/kg/injection, schedule: Q01DX001 (ip), vehicle: saline 93 % of control | dose: 150.0 mg/kg/injection, schedule: Q04DX003 (ip), vehicle: saline 92 % of control | dose: 170.0 mg/kg/injection, schedule: Q01DX009 (ip), vehicle: saline 96 % of control | dose: 255.0 mg/kg/injection, schedule: Q01DX009 (ip), vehicle: saline 100 % of control | dose: 300.0 mg/kg/injection, schedule: Q01DX001 (ip), vehicle: acetone 89 % of control | dose: 300.0 mg/kg/injection, schedule: Q01DX001 (ip), vehicle: saline 92 % of control

N#Cc1nc2c3ccccc3c(N=NC(N)=S)c-2[nH]c1C#N
inactive: dose: 50.0 mg/kg/injection, schedule: Q04DX002 (ip), vehicle: Klucel (hydroxypropylcellulose) (HPC) 87 % of control | dose: 100.0 mg/kg/injection, schedule: Q04DX002 (ip), vehicle: Klucel (hydroxypropylcellulose) (HPC) 91 % of control | dose: 200.0 mg/kg/injection, schedule: Q04DX002 (ip), vehicle: Klucel (hydroxypropylcellulose) (HPC) 91 % of control

C=CCN(CC=C)S(=O)(=O)c1cccc(C(=O)O)c1
inactive: dose: 100.0 mg/kg/injection, schedule: Q04DX003 (ip), vehicle: Klucel (hydroxypropylcellulose) (HPC) 103 % of control | dose: 200.0 mg/kg/injection, schedule: Q04DX003 (ip), vehicle: Klucel (hydroxypropylcellulose) (HPC) 92 % of control | dose: 400.0 mg/kg/injection, schedule: Q04DX003 (ip), vehicle: Klucel (hydroxypropylcellulose) (HPC) 105 % of control

CC(=O)OC1(C2(OC(C)=O)C=CC(=NS(=O)(=O)c3ccccc3)C=C2)C=CC(=NS(=O)(=O)c2ccccc2)C=C1 (centres undefined)
inactive: dose: 100.0 mg/kg/injection, schedule: Q01DX009 (ip), vehicle: saline with Tween-80 100 % of control | [1] 94 % of control | dose: 200.0 mg/kg/injection, schedule: Q01DX009 (ip), vehicle: saline with Tween-80 93 % of control | dose: 200.0 mg/kg/injection, schedule: Q04DX003 (ip), vehicle: saline with Tween-80 90 % of control | dose: 400.0 mg/kg/injection, schedule: Q01DX009 (ip), vehicle: saline with Tween-80 97 % of control | dose: 400.0 mg/kg/injection, schedule: Q04DX003 (ip), vehicle: saline with Tween-80 87 % of control

CCOC(=O)Cc1nnn(C)n1
inactive: [2] 93 % of control | [3] 90 % of control

Cc1ccc(N)c2cccnc12
inactive: dose: 100.0 mg/kg/injection, schedule: Q01DX009 (ip), vehicle: Klucel (hydroxypropylcellulose) (HPC) 93 % of control

CC(C)/C=N/N=C(N)N
inactive: dose: 120.0 mg/kg/injection, schedule: Q01DX Z (oral), vehicle: saline 113 % of control | dose: 240.0 mg/kg/injection, schedule: Q01DX Z (oral), vehicle: saline 104 % of control

CC(=O)Nc1c(C)cc(C)c(F)c1Br
inactive: dose: 37.5 mg/kg/injection, schedule: Q01DX001 (ip), vehicle: Klucel (hydroxypropylcellulose) (HPC) 97 % of control | dose: 75.0 mg/kg/injection, schedule: Q01DX001 (ip), vehicle: Klucel (hydroxypropylcellulose) (HPC) 95 % of control | dose: 150.0 mg/kg/injection, schedule: Q01DX001 (ip), vehicle: Klucel (hydroxypropylcellulose) (HPC) 95 % of control

CC1CN1N (centres undefined)
inactive: dose: 25.0 mg/kg/injection, schedule: Q01DX009 (ip), vehicle: saline 101 % of control | dose: 50.0 mg/kg/injection, schedule: Q01DX009 (ip), vehicle: saline 101 % of control | dose: 50.0 mg/kg/injection, schedule: Q04DX003 (ip), vehicle: saline 109 % of control | [4] 105 % of control | dose: 100.0 mg/kg/injection, schedule: Q01DX009 (ip), vehicle: saline 98 % of control | [2] 103 % of control | [5] 105 % of control

COc1ccc(OC)c2c(C)c(C)[nH]c12
inactive: dose: 50.0 mg/kg/injection, schedule: Q01DX001 (ip), vehicle: saline 98 % of control | [4] 93 % of control | [5] 109 % of control | [6] 106 % of control

S=P(=Nc1ccccc1)c1ccccc1 (centres undefined)
inactive: [7] 91 % of control | [8] 89 % of control | [9] 88 % of control

CCC(C)C1NC(=O)C(C(C)=O)=C1O.[Cu+2] (centres undefined)
inactive: [10] 105 % of control

COc1cc(OC)c(Cl)c(OC)c1
inactive: dose: 100.0 mg/kg/injection, schedule: Q01DX009 (ip), vehicle: other 120 % of control | [2] 101 % of control | dose: 200.0 mg/kg/injection, schedule: Q01DX009 (ip), vehicle: other 103 % of control | [3] 100 % of control | dose: 400.0 mg/kg/injection, schedule: Q01DX009 (ip), vehicle: other 108 % of control | [11] 101 % of control

OC(COc1ccccc1)CN1CCN(c2cccc(Cl)c2)CC1 (centres undefined)
inactive: [4] 97 % of control | [5] 95 % of control | [6] 92 % of control

NCC1COc2ccccc2O1 (centres undefined)
inactive: dose: 75.0 mg/kg/injection, schedule: Q01DX001 (ip), vehicle: carboxymethylcellulose (CMC) 98 % of control | [10] 96 % of control | dose: 300.0 mg/kg/injection, schedule: Q01DX001 (ip), vehicle: carboxymethylcellulose (CMC) 96 % of control

NCc1c[nH]c2ccccc12
inactive: dose: 44.0 mg/kg/injection, schedule: Q01DX Z (ip), vehicle: water 107 % of control | dose: 66.0 mg/kg/injection, schedule: Q01DX Z (ip), vehicle: water 105 % of control | [4] 95 % of control | dose: 100.0 mg/kg/injection, schedule: Q01DX Z (ip), vehicle: water 105 % of control | [2] 98 % of control | dose: 150.0 mg/kg/injection, schedule: Q01DX Z (ip), vehicle: water 105 % of control | [5] 92 % of control | [3] 95 % of control | [6] 89 % of control | [11] 88 % of control

Cc1nc(N)[nH]c(=O)c1CCCNc1cccc(C(F)(F)F)c1
inactive: [7] 92 % of control | [8] 92 % of control | [9] 97 % of control

CCCCCCCCCCCC(=O)Nc1ccccc1C(F)(F)F
inactive: dose: 100.0 mg/kg/injection, schedule: Q01DX009 (ip), vehicle: acetone 96 % of control | dose: 200.0 mg/kg/injection, schedule: Q01DX009 (ip), vehicle: acetone 95 % of control | dose: 400.0 mg/kg/injection, schedule: Q01DX009 (ip), vehicle: acetone 94 % of control

O=C(O)c1ccccc1C(=O)Nc1ccc([N+](=O)[O-])cc1
inactive: dose: 25.0 mg/kg/injection, schedule: Q04DX003 (ip), vehicle: saline with Tween-80 93 % of control | dose: 50.0 mg/kg/injection, schedule: Q04DX003 (ip), vehicle: saline with Tween-80 90 % of control | [1] 98 % of control

CCOC(=O)C(O)(CC)c1ccncc1Br (centres undefined)
inactive: dose: 75.0 mg/kg/injection, schedule: Q04DX003 (ip), vehicle: Klucel (hydroxypropylcellulose) (HPC) 95 % of control | [7] 102 % of control | dose: 150.0 mg/kg/injection, schedule: Q04DX003 (ip), vehicle: Klucel (hydroxypropylcellulose) (HPC) 91 % of control | [8] 102 % of control | dose: 300.0 mg/kg/injection, schedule: Q04DX003 (ip), vehicle: Klucel (hydroxypropylcellulose) (HPC) 101 % of control | [9] 112 % of control

C/C=C/C=C/C(=O)N(C)c1ccccc1
inactive: dose: 50.0 mg/kg/injection, schedule: Q01DX001 (ip), vehicle: carboxymethylcellulose (CMC) 111 % of control | dose: 100.0 mg/kg/injection, schedule: Q01DX001 (ip), vehicle: carboxymethylcellulose (CMC) 103 % of control | dose: 200.0 mg/kg/injection, schedule: Q01DX001 (ip), vehicle: carboxymethylcellulose (CMC) 103 % of control | dose: 400.0 mg/kg/injection, schedule: Q01DX001 (ip), vehicle: carboxymethylcellulose (CMC) 100 % of control

Reference: PubChem BioAssay AID248 (DTP/NCI, 2004)
